Experimental findings from ChEMBL document CHEMBL3045306, “Ultrasound-promoted synthesis, biological evaluation and molecular docking of novel 7-(2-chloroquinolin-4-yloxy)-4-methyl-2H-chromen-2-one derivatives” (2013) are described below.

Values after ≈ are worked out from the molar mass of the structure shown.

What all share (format): functional
In assay [1] the test system is Radical scavenging activity. Kind of assay: Antioxidant activity assessed as inhibition of DPPH radical formation at 50 ug after 30 mis UV-Vis spectrophotometric analysis.
For assay [2], the system named is Radical scavenging activity. Kind of assay: Antioxidant activity assessed as inhibition of DPPH radical formation at 500 ug after 30 mis UV-Vis spectrophotometric analysis.
The subject of assay [3] is Radical scavenging activity. The experiment in a line: Antioxidant activity assessed as inhibition of DPPH radical formation at 1000 ug after 30 mis UV-Vis spectrophotometric analysis.
For assay [4], the system named is Escherichia coli. Kind of assay: Antibacterial activity against Escherichia coli assessed as growth inhibition.
For assay [5], the system named is Radical scavenging activity. The experiment in a line: Antioxidant activity assessed as inhibition of DPPH radical formation at 100 ug after 30 mis UV-Vis spectrophotometric analysis.
For assay [6], the system named is Pseudomonas aeruginosa. The experiment in a line: Antibacterial activity against Pseudomonas aeruginosa assessed as growth inhibition.
Assay [7] deals with Staphylococcus aureus. Kind of assay: Antibacterial activity against Staphylococcus aureus assessed as growth inhibition.
Assay [8] relates to Bacillus subtilis. The experiment in a line: Antibacterial activity against Bacillus subtilis assessed as growth inhibition.
The subject of assay [9] is Meloidogyne. Kind of assay: Nematicidal activity against Meloidogyne litoralis assessed as growth inhibition.

Consider `Cc1ccc2nc(Cl)cc(Oc3ccc4c(C)cc(=O)oc4c3)c2c1`, for which the inhibition was determined as 19% in assay [1], 57% in assay [2], 69% in assay [3] and 20% in [5]. For the same molecule, the MIC in assay [4] turned out to be 12.5 µg/mL (≈ 35.5 µM); in assay [6], 100 µg/mL (≈ 284 µM); in assay [7], 12.5 µg/mL (≈ 35.5 µM).
Take `Cc1cc(=O)oc2cc(Oc3cc(Cl)nc4c3ccc3ccccc34)ccc12`: the inhibition amounted to 14% in assay [1], 40% in assay [2], 67% in [3] and 15% in assay [5]. Further, the MIC in [4] came out at 6.25 µg/mL (≈ 16.1 µM); in [6], 6.25 µg/mL (≈ 16.1 µM); in assay [7] it was 50 µg/mL (≈ 129 µM).
As to `Cc1ccc2c(Oc3ccc4c(C)cc(=O)oc4c3)cc(Cl)nc2c1`, the inhibition in assay [1] was found to be 10%; in assay [2], 35%; in assay [3], 65%; in assay [5], 11%. Also, the MIC in [6] stood at 12.5 µg/mL (≈ 35.5 µM).
In the case of `COc1cccc2c(Oc3ccc4c(C)cc(=O)oc4c3)cc(Cl)nc12`, the MIC in [8] stood at 100 µg/mL (≈ 272 µM); in [4] it was 6.25 µg/mL (≈ 17 µM); in assay [6], 6.25 µg/mL (≈ 17 µM). Further, the inhibition in assay [1] came to 8%; in [2], 38%; in assay [3], 69%; in [5], 11%.
As to `Cc1cc(=O)oc2cc(Oc3cc(Cl)nc4ccc(Br)cc34)ccc12`, the inhibition in assay [1] is 24%; in [2] it was 54%; in [3] it was 76%; in assay [5], 26%. Further, the MIC was 6.25 µg/mL (≈ 15 µM) in [9] and 50 µg/mL (≈ 120 µM) in assay [6].
Take `Cc1cc(C(C)(C)C)c(O)c(C(C)(C)C)c1`: the inhibition in [1] worked out at 93%; in [2] it was 96%; in assay [3] it was 98%; in assay [5] it was 94%.
With `Cc1cc(=O)oc2cc(Oc3cc(Cl)nc4c(C)cccc34)ccc12`, the inhibition in [1] was 12%; in assay [2] it was 45%; in assay [3], 68%; in [5] it was 14%. For the same molecule, the MIC is 100 µg/mL (≈ 284 µM) in [9] and 6.25 µg/mL (≈ 17.8 µM) in assay [4].
On to `Cc1cc(=O)oc2cc(Oc3cc(Cl)nc4ccccc34)ccc12`, for which the inhibition was determined as 21% in assay [1], 53% in assay [2], 78% in assay [3] and 23% in assay [5]. In addition, the MIC stood at 100 µg/mL (≈ 296 µM) in assay [9], 100 µg/mL (≈ 296 µM) in assay [4], 12.5 µg/mL (≈ 37 µM) in assay [6] and 50 µg/mL (≈ 148 µM) in [7].
As to `CN[C@@H]1[C@H](O[C@H]2[C@H](O[C@H]3[C@H](O)[C@@H](O)[C@H](N=C(N)N)[C@@H](O)[C@@H]3N=C(N)N)O[C@@H](C)[C@]2(O)C=O)O[C@@H](CO)[C@H](O)[C@H]1O` [STREPTOMYCIN], the MIC in assay [8] is 12.5 µg/mL (≈ 21.5 µM); in assay [9], 6.25 µg/mL (≈ 10.7 µM); in assay [4], 6.25 µg/mL (≈ 10.7 µM); in [6] it was 12.5 µg/mL (≈ 21.5 µM); in assay [7] it was 25 µg/mL (≈ 43 µM).
